{
  "source": "patent US6444829B1",
  "about": "“Pyrrolidine compounds” (Hoffmann-La Roche Inc., priority 2000, dated 2002)",
  "data": [
    {"smiles": "CC(=O)N(Cc1ccccc1)NC(=O)[C@@H]1C[C@@H](S)CN1S(=O)(=O)c1ccc2ccccc2c1", "values": [
      {"measurement": "melting point", "result": 64, "unit": "°C"}
    ]}
  ]
}
